From patent publication US7407982B2, “Oligo or polyalkylene glycol-coupled thrombin inhibitors” (HaemoSys GmbH, priority 2001, dated 2008)
Like-named read-outs stand apart in the source and are kept apart here.

Columns and labels:
human α-thrombin = molecular target: T1, human α-thrombin (Homo sapiens, UniProt P00734); test: Determination of Ki for thrombin inhibition (chromogenic or fluorogenic substrate, Dixon); assay type: biochemical; conditions: for KiTrypsin/KiThrombin: Example 8, selectivity quotient
T1 construct: 50 μl human α-thrombin (Kordia); purchased Kordia
Experimental: The Ki values are the average values of at least three calculations.
For determining the thrombin inhibiting effect of all reversibly binding inhibitors and inhibitor conjugates with inhibiting constants smaller than 1 nM, a fluorescence spectrometer (LS50B from the company Perkin Elmer) was used. […] The Ki values are the average values of at least three calculations.

trypsin = molecular target: T2, trypsin (Bos taurus, UniProt P00760); test: Ki values for trypsin, determined analogously; assay type: biochemical
T2 sequence (P00760 24-246): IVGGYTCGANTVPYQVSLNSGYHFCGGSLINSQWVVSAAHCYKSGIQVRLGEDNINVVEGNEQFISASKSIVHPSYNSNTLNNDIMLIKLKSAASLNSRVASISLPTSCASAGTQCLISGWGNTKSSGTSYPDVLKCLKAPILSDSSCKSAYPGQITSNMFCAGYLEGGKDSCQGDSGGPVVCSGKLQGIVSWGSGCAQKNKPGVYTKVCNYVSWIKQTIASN
Experimental: The Ki values for trypsin were determined analogously.
For optimizing the inhibitor conjugates, in particular of the following Examples 1 and 2, suitable groups R1 were sought which allow as strong a thrombin inhibition as possible. For examining the selectivity of the compounds, the inhibiting constants for trypsin were determined as well. The higher the quotient [KiTrypsin/KiThrombin], the more selectively the compound functions as a thrombin inhibitor. In order to facilitate the synthesis, this optimization was first carried out without coupling a polyalkylene glycol group to inhibitor molecules of formula (II) as listed in Table I. These compounds, which are active as thrombin inhibitors themselves, can be used as synthetic intermediates for the inhibitor conjugates of formula (I). As a central component, a glycyl-prolyl-dipeptide was consistently incorporated into the inhibitors.

[1] = Example 8, read-out: KiThrombin
[2] = Table I, formula (II) compounds
[3] = Table 2, formula (III) compounds

Row | Compound | Ki (human α-thrombin; [2]) | Ki Trypsin/Ki Thrombin (human α-thrombin; Table I, selectivity quotient) | also measured
1 | 4-Methoxy-benezenesulfonyl-Asn(4-[MeO-PEG5000-CH2CH2CO—NHCH2]-benzyl-Pro-4-amidinobenzylamide |  |  | Ki (human α-thrombin; [1]): 0.19 nM
2 | 4-Methoxy-benzenesulfonyl-Lys(propionyl-PEG5000-OMe)-Pro-4-amidinobenzylamide |  |  | Ki (trypsin; Example 8, read-out: KiTrypsin): 61 nM; KiTrypsin/KiThrombin (human α-thrombin): 64; Ki (human α-thrombin; [1]): 0.95 nM
3 | COc1ccc(S(=O)(=O)NCC(=O)N2CCC[C@H]2C(=O)NCc2ccc(C(=N)N)cc2)cc1Cl [1a] | 0.44 nM | 45 | 
4 | COc1ccc(S(=O)(=O)NCC(=O)N2CCC[C@H]2C(=O)NCc2ccc(C(=N)N)cc2)cc1C [1b] | 0.64 nM | 20 | 
5 | N=C(N)c1ccc(CNC(=O)[C@@H]2CCCN2C(=O)CNS(=O)(=O)c2ccc(Cl)c(Cl)c2)cc1 [4a] | 2.5 nM | 2.3 | 
6 | CCOc1ccc(S(=O)(=O)NCC(=O)N2CCC[C@H]2C(=O)NCc2ccc(C(=N)N)cc2)cc1 [33b] | 66 nM | 0.42 | 
7 | N=C(N)c1ccc(CNC(=O)C2CCCN2C(=O)C(CC2CCCCC2)NCC(=O)O)cc1 [H-D-N(CH2—COOH)Cha-Pro-4-(amidino)benzylamide, reference compound] |  |  | KiTrypsin/KiThrombin (human α-thrombin): 12; Ki (human α-thrombin; [1]): 0.3 nM
8 | N=C(N)N1CCC(CNC(=O)C2CCCN2C(=O)C(CC2CCCCC2)NCC(=O)O)CC1 [H-D-N(CH2—COOH)Cha-Pro-4-(amidomethyl)-N(amidino)piperidine, reference compound] |  |  | KiTrypsin/KiThrombin (human α-thrombin): 173; Ki (human α-thrombin; [1]): 1.3 nM
9 | COc1ccc(S(=O)(=O)NC(CCCCN)C(=O)N2CCCC2C(=O)NCc2ccc(C(=N)N)cc2)cc1 (stereo not drawn) [No. 53, 4-Methoxy-benezenesulfonyl-Lys-Pro-4-amidinobenzylamide] |  |  | KiTrypsin/KiThrombin (human α-thrombin): 112; Ki (human α-thrombin; [1]): 0.73 nM
10 | COc1ccc(S(=O)(=O)NC(CC(=O)O)C(=O)N2CCCC2C(=O)NCc2ccc(C(=N)N)cc2)cc1 (stereo not drawn) [No. 55, 4-Methoxy-benezenesulfonyl-Asp-Pro-4-amidinobenzylamide] |  |  | KiTrypsin/KiThrombin (human α-thrombin): 48; Ki (human α-thrombin; [1]): 1.6 nM
11 | COc1cc(C)c(S(=O)(=O)NCC(=O)N2CCC[C@H]2C(=O)NCc2ccc(C(=N)N)cc2)c(C)c1C [compound 2] | 1.3 nM | 12.1 | Ki (trypsin; [2]): 15.7 nM
12 | N=C(N)c1ccc(CNC(=O)[C@@H]2CCCN2C(=O)CNS(=O)(=O)Cc2ccccc2)cc1 [compound 6] | 3.6 nM | 2.1 | 
13 | COc1ccc(S(=O)(=O)NCC(=O)N2CCC[C@H]2C(=O)NCc2ccc(C(=N)N)cc2)cc1OC [compound 8] | 4.7 nM | 4.2 | 
14 | N=C(N)c1ccc(CNC(=O)[C@@H]2CCCN2C(=O)CNS(=O)(=O)c2cc(Cl)c(Cl)cc2Cl)cc1 [compound 9] | 5.9 nM | 3.3 | 
15 | N=C(N)c1ccc(CNC(=O)[C@@H]2CCCN2C(=O)CNS(=O)(=O)c2ccc3ccccc3c2)cc1 [compound 12] | 8.5 nM | 6.8 | Ki Trypsin/Ki Thrombin (human α-thrombin; Table 2, selectivity quotient): 6.8
16 | N=C(N)c1ccc(CNC(=O)[C@@H]2CCCN2C(=O)CNS(=O)(=O)c2ccc(Cl)cc2)cc1 [compound 13] | 10 nM | 2.7 | 
17 | Cc1cc(S(=O)(=O)NCC(=O)N2CCC[C@H]2C(=O)NCc2ccc(C(=N)N)cc2)c(Cl)cc1Cl [compound 14] | 10.5 nM | 1.1. | 
18 | N=C(N)c1ccc(CNC(=O)[C@@H]2CCCN2C(=O)CNS(=O)(=O)c2ccccc2)cc1 [compound 15] | 10.8 nM | 0.96 | 
19 | N=C(N)c1ccc(CNC(=O)[C@@H]2CCCN2C(=O)CNS(=O)(=O)c2cccc(Cl)c2Cl)cc1 [compound 17] | 12.7 nM | 0.87 | 
20 | Cc1cc(C)c(C)c(S(=O)(=O)NCC(=O)N2CCC[C@H]2C(=O)NCc2ccc(C(=N)N)cc2)c1C [compound 18] | 13.4 nM | 2.5 | 
21 | Cc1cc(Cl)cc(Cl)c1S(=O)(=O)NCC(=O)N1CCC[C@H]1C(=O)NCc1ccc(C(=N)N)cc1 [compound 25] | 16.9 nM | 1.1 | 
22 | CCc1ccc(S(=O)(=O)NCC(=O)N2CCC[C@H]2C(=O)NCc2ccc(C(=N)N)cc2)cc1 [compound 26] | 19.1 nM | 2.6 | 
23 | N=C(N)c1ccc(CNC(=O)[C@@H]2CCCN2C(=O)CNS(=O)(=O)c2ccccc2Cl)cc1 [compound 27] | 19.3 nM | 0.98 | 
24 | N=C(N)c1ccc(CNC(=O)[C@@H]2CCCN2C(=O)CNS(=O)(=O)CCc2ccccc2)cc1 [compound 31] | 41.9 nM | 0.39 | Ki (trypsin; [2]): 16.5 nM
25 | N=C(N)c1ccc(CNC(=O)C2CCCN2C(=O)C(CO)NS(=O)(=O)c2ccc3ccccc3c2)cc1 (stereo not shown) [compound 38] |  |  | Ki (human α-thrombin; [3]): 2.54 nM; Ki Trypsin/Ki Thrombin (human α-thrombin; Table 2, selectivity quotient): 10.9
26 | N=C(N)c1ccc(CNC(=O)C2CCCN2C(=O)C(CC(N)=O)NS(=O)(=O)c2ccc3ccccc3c2)cc1 (stereo not shown) [compound 39] |  |  | Ki (human α-thrombin; [3]): 3.4 nM; Ki Trypsin/Ki Thrombin (human α-thrombin; Table 2, selectivity quotient): 11
27 | N=C(N)c1ccc(CNC(=O)C2CCCN2C(=O)C(CCC(N)=O)NS(=O)(=O)c2ccc3ccccc3c2)cc1 (stereo not shown) [compound 40] |  |  | Ki (human α-thrombin; [3]): 3.8 nM; Ki Trypsin/Ki Thrombin (human α-thrombin; Table 2, selectivity quotient): 4.2
28 | N=C(N)c1ccc(CNC(=O)C2CCCN2C(=O)C(CC(=O)O)NS(=O)(=O)c2ccc3ccccc3c2)cc1 (stereo not shown) [compound 42] |  |  | Ki (human α-thrombin; [3]): 24.1 nM; Ki Trypsin/Ki Thrombin (human α-thrombin; Table 2, selectivity quotient): 2.9
29 | COc1ccc(S(=O)(=O)NC(CC(=O)NCc2cccc(C#N)c2)C(=O)N2CCCC2C(=O)NCc2ccc(C(=N)N)cc2)cc1 (stereo not shown) [compound 46] |  |  | Ki (human α-thrombin; [3]): 0.061 nM; Ki Trypsin/Ki Thrombin (human α-thrombin; Table 2, selectivity quotient): 1163
30 | COc1ccc(S(=O)(=O)N[C@@H](CC(=O)O)C(=O)N2CCC[C@H]2C(=O)NCc2ccc(C(=N)N)cc2)cc1 [compound 55] |  |  | Ki (human α-thrombin; [3]): 1.6 nM; Ki Trypsin/Ki Thrombin (human α-thrombin; Table 2, selectivity quotient): 48

The next lines start with results.

Row | Ki (human α-thrombin; [2]) | Ki Trypsin/Ki Thrombin (human α-thrombin; Table I, selectivity quotient) | Compound | also measured
31 | 2.8 nM | 2.9 | Cc1cccc(S(=O)(=O)NCC(=O)N2CCC[C@H]2C(=O)NCc2ccc(C(=N)N)cc2)c1 [4b] | 
32 | 48 nM | 0.47 | N#Cc1cccc(S(=O)(=O)NCC(=O)N2CCC[C@H]2C(=O)NCc2ccc(C(=N)N)cc2)c1 [33a] | 
33 | 7.8 nM | 0.5 | N=C(N)c1ccc(CNC(=O)[C@@H]2CCCN2C(=O)CNS(=O)(=O)c2cccc3ccccc23)cc1 [compound 10] | 
34 | 8.5 nM | 0.4 | N=C(N)c1ccc(CNC(=O)[C@@H]2CCCN2C(=O)CNS(=O)(=O)c2cc(Cl)cc(Cl)c2)cc1 [compound 11] | 
35 | 12.7 nM | 2.2 | Cc1c(C)c(C)c(S(=O)(=O)NCC(=O)N2CCC[C@H]2C(=O)NCc2ccc(C(=N)N)cc2)c(C)c1C [compound 16] | 
36 | 13.5 nM | 0.67 | CC(C)c1cc(C(C)C)c(S(=O)(=O)NCC(=O)N2CCC[C@H]2C(=O)NCc2ccc(C(=N)N)cc2)c(C(C)C)c1 [compound 19] | Ki (trypsin; [2]): 9.1 nM
37 | 13.6 nM | 0.22 | N=C(N)c1ccc(CNC(=O)[C@@H]2CCCN2C(=O)CNS(=O)(=O)CC2CCCCC2)cc1 [compound 20] | Ki (trypsin; [2]): 3.1 nM
38 | 15.1 nM | 1.2 | N=C(N)c1ccc(CNC(=O)[C@@H]2CCCN2C(=O)CNS(=O)(=O)c2ccc(Cl)cc2Cl)cc1 [compound 21] | 
39 | 16.1 nM | 0.88 | Cc1ccc(S(=O)(=O)NCC(=O)N2CCC[C@H]2C(=O)NCc2ccc(C(=N)N)cc2)cc1 [compound 22] | 
40 | 16.4 nM | 0.71 | N=C(N)c1ccc(CNC(=O)[C@@H]2CCCN2C(=O)CNS(=O)(=O)c2ccc(Cl)c(Cl)c2Cl)cc1 [compound 23] | 
41 | 16.6 nM | 0.80 | Cc1cc(C)c(S(=O)(=O)NCC(=O)N2CCC[C@H]2C(=O)NCc2ccc(C(=N)N)cc2)c(C)c1 [compound 24] | 
42 | 30.3 nM | 1.2 | Cc1c(C)c(S(=O)(=O)NCC(=O)N2CCC[C@H]2C(=O)NCc2ccc(C(=N)N)cc2)c(C)c2c1OC(C)(C)C2 [compound 28] | Ki (trypsin; [2]): 37.1 nM
43 | 32.2 nM | 0.32 | CC(C)(C)c1ccc(S(=O)(=O)NCC(=O)N2CCC[C@H]2C(=O)NCc2ccc(C(=N)N)cc2)cc1 [compound 29] | 
44 | 38 nM | 0.42 | N=C(N)c1ccc(CNC(=O)[C@@H]2CCCN2C(=O)CNS(=O)(=O)c2cccc([N+](=O)[O-])c2)cc1 [compound 30] | 
45 | 44.3 nM | 0.05 | N=C(N)c1ccc(CNC(=O)[C@@H]2CCCN2C(=O)CNS(=O)(=O)/C=C/c2ccccc2)cc1 [compound 32] | 
46 | 76 nM | 0.33 | N#Cc1ccc(S(=O)(=O)NCC(=O)N2CCC[C@H]2C(=O)NCc2ccc(C(=N)N)cc2)cc1 [compound 34] | 
47 | 115 nM | 0.11 | N=C(N)c1ccc(CNC(=O)[C@@H]2CCCN2C(=O)CNS(=O)(=O)c2ccc([N+](=O)[O-])cc2)cc1 [compound 35] | 
